# Assay results reported in patent publication US20170080049A1, “MEDICINE AGAINST GROWTH FAILURE INDUCED BY ADMINISTRATION OF STEROID” (DAIICHI SANKYO COMPANY, LIMITED, priority 2014, published 2017).
# Assays:
# Format in all cases: in vivo
# [1] = test system: dexamethasone-induced growth failure, male Crlj:WI (Wistar) rat; conditions: dexamethasone 1 mg/mL pump alone or combined with CNP derivative (A) 20 mg/mL pump, continuous s.c. 28 days, mean ± SD, n=6
# Method: Osmotic pumps (MINI-OSMOTIC PUMP Model 2004, available from DURECT CORPORATION, flow rate: 0.25 μL/hr, for 28 days) were charged with a 1 mg/mL solution of dexamethasone (dexamethasone injection “KS”, available from Kyoritsuseiyaku Corporation, Group 2 and Group 3) or saline in a control group (Group 1), and one osmotic pump was embedded in the hypoderm of the back of each 7-week-old male Crlj:WI (Wistar) rat. At the same time, one osmotic pump (the same as described above) charged with a 20 mg/mL solution of CNP derivative (A) in Group 3, or charged with Medium 1 (0.03 mol/L acetate buffer (pH 4.0)/1% benzyl alcohol/10% sucrose) in Group 1 and Group 2 was embedded in the hypoderm of the back simultaneously with the pump containing dexamethasone or saline. Then the animals were fed for 28 days, and the body weight, the body length (length from the top of the nose to the anus) and the tail length were measured on the final day, and after collecting the blood from the abdominal aorta under isoflurane anesthesia, the right femur and major organs (spleen, thymus, liver, heart and lung) were collected. Regarding the femur, the bone length and width were measured by using a caliper, and the organ weights were measured. Concentrations of cholesterol and IGF-1 in plasma prepared from the blood, were determined by using cholesterol E-Test Wako (available from Wako Pure Chemical Industries, Ltd.) and Quantikine® ELISA Mouse/Rat IGF-I Immunoassay (MG100, available from R&D Systems). [Result]
# [2] = test system: dexamethasone-induced rat growth failure model; experiment: Combined administration study of human-type CNP-53 or various CNP derivatives in dexamethasone-induced rat growth failure model (Example 3); conditions: dexamethasone 0.67 mg/mL pump alone or combined with 15 mg/mL pump of the CNP peptide, 5-week-old male Wistar rat, n=5
# Method: Osmotic pumps (MINI-OSMOTIC PUMP Model 2004, available from DURECT CORPORATION, flow rate: 0.25 μL/hr, for 28 days) were charged with 0.67 mg/mL solution of dexamethasone (dexamethasone injection “KS”, available from Kyoritsuseiyaku Corporation) and one osmotic pump was embedded in the hypoderm of the back of each 5-week-old male Crlj:WI (Wistar) rat (5 animals/group, Groups 2 to 6, a total of 25 animals). At the same time, one osmotic pump (the same as above) charged with a 15 mg/mL solution of CNP derivative (A) in Group 3, human-type CNP-53 in Group 4, CNP derivative (B) in Group 5 and CNP derivative (C) in Group 6 was embedded in the hypoderm of the back simultaneously. No substance was administered to the normal control group (Group 1, 5 animals). Then the animals were fed for 28 days, and transitions of the body weight, the body length and the tail length were measured. On the final day, the blood was collected from the abdominal aorta and the animals were caused to die under isoflurane anesthesia, and plasma was separated from the collected blood and the cholesterol concentration was determined by using a “LabAssay (trademark) cholesterol” (available from Wako Pure Chemical Industries, Ltd.). After collecting the blood and causing the animals to die, the right femur and thymus were extracted, and the length of the right femur and the weight of the thymus were measured.
# [3] = test system: steroid-induced growth failure, male Crlj:WI (Wistar) rat; experiment: Simultaneous combined administration test of various steroids and CNP derivative (A) in rats (Example 5)
# Method: 0.3 mg/mL solution of dexamethasone (dexamethasone injection “KS”, available from Kyoritsuseiyaku Corporation diluted with saline), prednisolone succinate suspended in 0.1% polysorbate-containing brine (available from Wako Pure Chemical Industries, Ltd., concentration of 5 mg/mL as prednisolone), or betamethasone dipropionate suspended in 0.1% polysorbate-containing brine (available from Wako Pure Chemical Industries, Ltd., concentration of 0.3 mg/mL as betamethasone) was administered to the hypoderm of the back of a 4-week-old male Crlj:WI (Wistar) rat (ten animals for each set of substances) in a volume of 1 mL/kg once a day for 28 days. No substance was administered to the control group (5 animals, Group 1). At the same time, for five of ten animals in each set (Group 2, Group 4, Group 6) a medium (0.03 mol/L acetate buffer (pH 4.0)/1% benzyl alcohol/10% sucrose) and for the remaining five animals (Group 3, Group 5, Group 7) the medium and a 1 mg/mL solution of CNP derivative (A) were administered in combination in the hypoderm of the back in a volume of 1 mL/kg once a day for 28 days. After measuring the body weight, the body length and the tail length under isoflurane anesthesia on the day after the final day of administration, blood was collected from the abdominal aorta and the animal was caused to die, the right femur was extracted and the femur length was measured.
# [4] = test system: rat growth failure induced by dexamethasone; experiment: Action comparing study between CNP derivative (A) and human growth hormone on rat growth failure induced by dexamethasone (Example 6); conditions: 2 mL/kg s.c. once a day 28 days, n=4 or 5
# Method: Osmotic pumps (MINI-OSMOTIC PUMP Model 2004, available from DURECT CORPORATION, flow rate: 0.25 μL/hr, for 28 days) were charged with a 0.67 mg/mL solution of dexamethasone (dexamethasone injection “KS”, available from Kyoritsuseiyaku Corporation), and one osmotic pump was embedded in the hypoderm of the back of each 4-week-old male Crlj:WI (Wistar) rat (5 animals/group, Group 2 to Group 4, total of 15 animals). For Group 3, a 1 mg/mL solution of CNP derivative (A) (medium: 0.03 mol/L acetate buffer (pH 4.0)/1% benzyl alcohol/10% sucrose), and for Group 4, a 1 mg/mL solution of human-type growth hormone preparation (somatropin BS subcutaneous injection 10 mg “SANDOZ”) diluted with a phosphate buffer was administered to the hypoderm of the back of five rats, respectively, in a volume of 2 mL/kg once a day for 28 days. No substance was administered to the normal control group (5 animals, Group 1). On the final day, after measuring the body weight, the body length and the tail length, the blood was collected from the abdominal aorta and the animal was caused to die under isoflurane anesthesia, the left femur was extracted and the bone length was measured, and then a histopathological specimen of the epiphyseal region was prepared.
# [5] = dexamethasone 0.3 mg/mL, 1 mL/kg s.c. once a day 28 days, + medium or + CNP derivative (A) 1 mg/kg, n=5
# [6] = dexamethasone 0.67 mg/mL pump alone or with CNP derivative (A) or human-type growth hormone 1 mg/mL
compound,measurement,setting,value
"C[C@@H]1C[C@H]2[C@@H]3CCC4=CC(=O)C=C[C@]4(C)[C@@]3(F)[C@@H](O)C[C@]2(C)[C@@]1(O)C(=O)CO [Dexamethasone, dexamethasone]",Body length at final day,[1]; 7-week-old male Wistar rat,219 ± 5 mm
same,Tail length at final day,[1]; 7-week-old male Wistar rat,195 ± 6 mm
same,Right femur Length,[1]; male Wistar rat,35.6 ± 0.6 mm
same,"Right femur Wide (epiphyseal region, maximum width)",[1]; male Wistar rat,7.7 ± 0.4 ^NS mm
same,Body weight at dissection,"[2]; 0.25 μL/hr continuous s.c. 28 days, mean ± SD",286 ± 17 g
same,Body length at dissection,[2]; continuous s.c. 28 days,199 ± 2 mm
same,"Body length, variation from preadministration value (Δ value)",[2]; continuous s.c. 28 days,(23.8 ± 2.4) mm
same,"Body weight, variation from preadministration value (Δ value)",[2]; continuous s.c. 28 days,(118 ± 15) g
same,Right femur length at dissection,[2]; continuous s.c. 28 days,32.7 ± 0.3 mm
same,Tail length at dissection,[2]; continuous s.c. 28 days,202 ± 3 mm
same,"Tail length, variation from preadministration value (Δ value)",[2]; continuous s.c. 28 days,(35.2 ± 3.7) mm
same,thymus body weight ratio,[2]; continuous s.c. 28 days,[0.11 ± 0.02%]
same,thymus weight at dissection,[2]; continuous s.c. 28 days,0.36 ± 0.04 g
same,Body length at dissection,[3]; [5],177 ± 4 mm
same,"Body length, variation from preadministration value (Δ value)",[3]; [5],(27 ± 5) mm
same,"Body weight, variation from preadministration value (Δ value)",[3]; [5],(69 ± 5) g
same,Right femur length at dissection,[3]; [5],28.3 ± 0.4 mm
same,Tail length at dissection,[3]; [5],174 ± 4 mm
same,"Tail length, variation from preadministration value (Δ value)",[3]; [5],(47 ± 7) mm
same,Body weight at dissection,"[3]; dexamethasone 0.3 mg/mL, 1 mL/kg s.c. once a day 28 days, + medium or + CNP derivative (A) 1 mg/mL, 1 mL/kg s.c. once a day, 4-week-old male Wistar rat, mean ± SD, n=5",176 ± 5 g
same,growth failure in rats by repeated administration of the steroid for 28 days (in words),"[3]; rat, in vivo, sc",induce growth failure
same,Body weight at dissection,"[4]; dexamethasone 0.67 mg/mL pump 28 days alone or with CNP derivative (A) or human-type growth hormone 1 mg/mL, 4-week-old male Wistar rat, mean ± SD",245 ± 12 g
same,Body length at dissection,[4]; [6],199 ± 4 mm
same,"Body length, variation from pre-administration value (Δ value)",[4]; [6],(46.8 ± 4.7) mm
same,"Body weight, variation from pre-administration value (Δ value)",[4]; [6],(139 ± 13) g
same,Left femur length at dissection,[4]; [6],31.3 ± 0.2 mm
same,Tail length at dissection,[4]; [6],197 ± 5 mm
same,"Tail length, variation from pre-administration value (Δ value)",[4]; [6],(65.0 ± 4.9) mm
